From the OPERA property sets (Mansouri et al. 2018)

Structure (SMILES) | logP
CCNC12c3ccccc3CC1CCCC2C (stereo unspecified) | 3.8
CNC12c3ccccc3CC1CCCC2C (stereo unspecified) | 3.44
CNC12CCCCC1Cc1ccc(OC)cc12 (stereo unspecified) | 3.54
CNCC1CCC2(NC)c3ccccc3CC2C1 (stereo unspecified) | 2.48
NC12CCCC1Cc1ccccc12 (stereo unspecified) | 2.58
CNC12CCCCC1Cc1ccccc12 (stereo unspecified) | 3.38
CNC12CCCCC1c1ccccc1C2 (stereo unspecified) | 3.43
C=C1c2ccccc2C2(NC)CCCCC12 (stereo unspecified) | 3.79
CNC12CCCCC1Cc1cc(OC)ccc12 (stereo unspecified) | 3.51
CNC12CCC(CN)CC1Cc1ccccc12 (stereo unspecified) | 1.84
CNC12CCCCCC1Cc1ccccc12 (stereo unspecified) | 3.77
